# In ChEMBL document CHEMBL5329212, “In situ click chemistry-based discovery of 1,2,3-triazole-derived diarylpyrimidines as novel HIV-1 NNRTIs by exploiting the tolerant region I in binding pocket” (Bioorg Med Chem, 2023):
# Legend:
# [1] = system: Human immunodeficiency virus 1; assay: Antiviral activity against HIV-1 harboring RT F227L/V106A double mutant infected in human MT4 cells assessed as protection against virus-induced cytopathic effect measured after 5 days by MTT assay; assay type: functional, organism-based; details: Human immunodeficiency virus 1, MT4, 120 h
# [2] = Aqueous solubility of the compound at pH 2 at 0.1 to 10 mg; assay type: physicochemical; details: aqueous medium, dose 0.1-10 mg
# [3] = biological target: Human immunodeficiency virus type 1 reverse transcriptase (Human immunodeficiency virus 1, UniProt Q72547); assay: Inhibition of HIV-1 reverse transcriptase incubated for 1 hrs in presence of biotin-labeled dNTPs by ELISA assay
# [4] = system: Human immunodeficiency virus 1; assay: Antiviral activity against HIV-1 harboring RT K103N mutant infected in human MT4 cells assessed as protection against virus-induced cytopathic effect measured after 5 days by MTT assay; assay type: functional, organism-based; details: Human immunodeficiency virus 1, MT4, 120 h
# [5] = system: Human immunodeficiency virus 1; assay: Antiviral activity against HIV-1 harboring RT L100I mutant infected in human MT4 cells assessed as protection against virus-induced cytopathic effect measured after 5 days by MTT assay; assay type: functional, organism-based; details: Human immunodeficiency virus 1, MT4, 120 h
# [6] = Cytotoxicity against human MT4 cells assessed as reduction in cell viability measured after 5 days by MTT assay; assay type: toxicity, cell-based; details: time 5 day
# [7] = system: Human immunodeficiency virus 1; assay: Antiviral activity against HIV-1 harboring RT Y188L mutant infected in human MT4 cells assessed as protection against virus-induced cytopathic effect measured after 5 days by MTT assay; assay type: functional, organism-based; details: Human immunodeficiency virus 1, MT4, 120 h
# [8] = system: Human immunodeficiency virus 1; assay: Antiviral activity against HIV-1 harboring RT RES056 mutant infected in human MT4 cells assessed as protection against virus-induced cytopathic effect measured after 5 days by MTT assay; assay type: functional, organism-based; details: Human immunodeficiency virus 1, MT4, 120 h
# [9] = system: Human immunodeficiency virus 1; assay: Antiviral activity against HIV-1 harboring RT Y181C mutant infected in human MT4 cells assessed as protection against virus-induced cytopathic effect measured after 5 days by MTT assay; assay type: functional, organism-based; details: Human immunodeficiency virus 1, MT4, 120 h
# [10] = Aqueous solubility of the compound at pH 7.4 at 0.1 to 10 mg; assay type: physicochemical; details: aqueous medium, dose 0.1-10 mg
# [11] = Aqueous solubility of the compound at pH 7.0 at 0.1 to 10 mg; assay type: physicochemical; details: aqueous medium, dose 0.1-10 mg
# [12] = system: Human immunodeficiency virus 1; assay: Antiviral activity against wild type HIV-1 IIIB infected in human MT4 cells assessed as protection against virus-induced cytopathic effect measured after 5 days by MTT assay; assay type: functional, organism-based; details: Human immunodeficiency virus 1, IIIB, MT4, 120 h
# [13] = system: Human immunodeficiency virus 1; assay: Antiviral activity against HIV-1 harboring RT E138K mutant infected in human MT4 cells assessed as protection against virus-induced cytopathic effect measured after 5 days by MTT assay; assay type: functional, organism-based; details: Human immunodeficiency virus 1, MT4, 120 h
# [14] = biological target: Human immunodeficiency virus type 1 reverse transcriptase (Human immunodeficiency virus 1) (UniProt Q72547); assay: Inhibition of HIV-1 reverse transcriptase at 0.267 uM incubated for 1 hrs in presence of biotin-labeled dNTPs by ELISA assay relative to control
# [15] = Half life in Wistar rat at 2 mg/kg, iv measured upto 8 hrs by LC-MS/MS analysis; assay type: ADME, organism-based; details: in vivo
Compound,EC50 [1] [µM],solubility [2] [µg/mL],IC50 [3] [nM],EC50 [4] [nM],EC50 [5] [nM],CC50 at 120 h [6] [µM],EC50 [7] [µM],EC50 [8] [µM],EC50 [9] [µM],solubility [10] [µg/mL],solubility [11] [µg/mL],EC50 [12] [nM],EC50 [13] [nM],inhibition [14] [%],half-life [15] [min]
Cc1cc(C#N)cc(C)c1Oc1nc(Nc2ccc(-c3cn(S(=O)(=O)n4ccnc4)nn3)cc2)nc2ccsc12,0.26,102,30,10,80,140,0.25,≥ 5.64,0.16,44.2,64.7,10,30,66.5,
Cc1cc(C#N)cc(C)c1Oc1nc(NC2CCN(Cc3ccc(S(N)(=O)=O)cc3)CC2)nc2scnc12,,,,,,,,,,,,,,,54
Cc1cc(C#N)cc(C)c1Oc1nc(Nc2ccc(-c3cn(Cc4ccc(C(F)(F)F)cc4)nn3)cc2)nc2ccsc12,8.88,,450,330,840,88.2,3.12,25.5,2.39,,,190,690,74.2,
Cc1cc(C#N)cc(C)c1Oc1nc(NC2CCN(Cc3ccc(S(N)(=O)=O)cc3)CC2)nc2ccsc12,,,,,,,,,,,,,,39.1,96
CCOC(=O)c1ccc(Cn2cc(-c3ccc(Nc4nc(Oc5c(C)cc(C#N)cc5C)c5sccc5n4)cc3)nn2)cc1,> 208,,430,860,34800,> 208,> 208,> 208,120,,,540,780,60,
Cc1cc(C#N)cc(C)c1Oc1nc(Nc2ccc(-c3cn(Cc4ccc(C(F)(F)F)cc4F)nn3)cc2)nc2ccsc12,21.8,,1090,1310,2360,129,18.6,34.4,3.69,,,810,2450,63.6,
Cc1cc(C#N)cc(C)c1Oc1nc(Nc2ccc(-c3cn(Cc4ccc(Cl)cc4)nn3)cc2)nc2ccsc12,106,,320,1110,73200,> 222,> 222,> 222,202,,,550,1080,44.7,
Cc1cc(C#N)cc(C)c1Oc1nc(Nc2ccc(-c3cn(CCN4C(=O)c5ccccc5C4=O)nn3)cc2)nc2ccsc12,124,,3360,2110,3200,> 204,≥ 157,> 204,45.7,,,1850,13800,46.2,
Cc1cc(C#N)cc(C)c1Oc1nc(Nc2ccc(-c3cn(Cc4ccc(S(C)(=O)=O)cc4)nn3)cc2)nc2ccsc12,110,,410,60,2160,> 206,124,≥ 104,20,,,40,140,51.9,
Cc1cc(C#N)cc(C)c1Oc1nc(NC2CCN(Cc3ccc(S(N)(=O)=O)cc3)CC2)nc2ncsc12,,,,,,,,,,,,,,,120
